From US10457707B2, “Substituted urea depsipeptide analogs as activators of the CLPP endopeptidase” (priority 2015, dated 2019)
Values after ≈ are worked out from the molar mass of the structure shown. Read-outs that look alike come from different tables or passages of the source. *1 amine or outer side, *2 acyl side, *3 side chain or, on linkers, in order; H or OH if unused. Where a SMILES comes first, the peptide text is derived from it. Bridges are numbered along the chain shown (N, C = ends). [ ]: non-standard residue; d: D form. The star is where a group is joined. ξ: configuration not given here. Phe(3,5-F2) = N[C@@H](Cc1cc(F)cc(F)c1)C(=O)O; NH(4-OCF3-phenyl) = FC(F)(F)Oc1ccc(N*)cc1; Morpholine(3S-CO) = O=C(O)[C@@H]1COCCN1; Pro(4R-Me) = C[C@H]1CN[C@H](C(=O)O)C1; NH(3,4-Me2-phenyl) = Cc1ccc(N*)cc1C; NMeaThr = CN[C@H](C(=O)O)[C@H](C)O; Hyp = O=C(O)[C@@H]1C[C@@H](O)CN1; NH(4-Et-phenyl) = CCc1ccc(N*)cc1; NH(4-Me-phenyl) = Cc1ccc(N*)cc1; aThr = C[C@H](O)[C@H](N)C(=O)O; Pip = O=C(O)[C@@H]1CCCCN1; NMeA = CN[C@@H](C)C(=O)O; CO = O=C([*:1])[*:2]; ξP = O=C(O)C1CCCN1

How the values were obtained:
Sa-ClpP = target: T1, Sa-ClpP (Staphylococcus aureus, UniProt Q2G036); assay: Sa-ClpP casein-BODIPY ClpP activation assay, method variant not marked in Table 5; type: biochemical, S. aureus
T1 construct: made in house; host or cells: E. coli BL21(DE3)
T1 sequence (Q2G036 1-195): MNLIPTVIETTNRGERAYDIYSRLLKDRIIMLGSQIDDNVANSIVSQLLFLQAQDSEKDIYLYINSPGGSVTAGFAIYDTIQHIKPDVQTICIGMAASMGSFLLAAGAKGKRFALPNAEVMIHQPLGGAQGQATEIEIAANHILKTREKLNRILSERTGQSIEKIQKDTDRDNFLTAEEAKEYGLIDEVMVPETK
Method: The compounds were assayed in a casein digestion assay in order to determine their effect on ClpP activation. Briefly, the assay was carried out using S. aureus ClpP (“Sa-ClpP”) overexpressed in E. coli BL21(DE3) and purified in a two-step process. Purity of the protein was assessed through SDS PAGE analysis. EC50 evaluations were conducted in triplicate in a 20 μl assay format using a method adapted from Maurizi et al. (Methods Enzymol. (1994) 244:314-331). Each well contained 10 μM saClpP, 25 μg/ml BODIPY FL casein (Invitrogen Corporation, San Diego, Calif.), and test compound in concentrations ranging between 0-1000 μM in assay buffer (50 mM Tris pH 8, 200 mM KCl, and 1 mM TCEP). The reaction took place at 37° C. Fluorescence (excitation 485 nm; emission 528 nm) was measured in five minute intervals over a 45 min period using a BioTek HT fluorescence microplate reader (BioTek Instruments, Inc., Winooski, Vt.). Velocity of each reaction was calculated and data was fit to a dose response curve using GraphPad Prism® software (GraphPad Software, Inc., La Jolla, Calif.). EC50 is the effective concentration of compound which causes 50% activation of S. aureus ClpP in the foregoing BODIPY FL casein assay.
Alternatively, the assay was carried out using EnzCheck Protease Assay (Molecular Probes, Catalog # E6638). The assay was performed in black 384 well, flat bottom, low volume plates (Greiner Bio-One, Monroe, N.C., catalog #784076). 10 μL of Tris*HCl buffer, pH 8.0 with 0.01% Triton X-100 was pipetted into each well using a Well-Mate (Thermo Scientific, Waltham, Mass.). 0.4 μL test compounds or controls (2% DMSO v/v) were added to each well using a Biomek FX liquid handling robot (Beckman Coulter, Indianapolis Ind.). After addition of test compounds and controls, 10 μL of master mix containing 2 μM Sa-ClpP and 2 μM substrate (Bodipy-FL labeled casein) in Tris*HCl buffer, pH 8.0 with 0.01% (v/v) Triton X-100, was pipetted into each well. All assays were performed in triplicate, under linear velocity conditions. Increase in fluorescent signal following activation of Sa-ClpP by test compounds and controls was measured over time period of 30 mins using filters with excitation at 485±15 nm and emission at 520±25 nm on a PHERAstar FS Multilabel reader (BMG, Cary, N.C.). […] Data analysis was done by measuring rate of casein degradation over time (slopes). Computed degradation rates (slopes) were normalized to positive (ADEP4) or negative (DMSO) controls. Using nonlinear regression curve fitting EC50 values and % activation were determined using the equation “log [agonist] vs. Response-variable slope (four parameters)-symmetrical” in the program Prism 6 (GraphPad Software, La Jolla, Calif. USA, www.graphpad.com).
Substituted urea depsipetide analogs were synthesized as described above. The EC50 for ClpP activation was determined in the Sa-ClpP in casein-BODIPY assay as described above. The IC50 for ADEP displacement was determined in the ADEP displacement fluorescent polarization assay as described above; and the IC50 for growth inhibition was determined in the Vero cell cytotoxicity assay as described above. The compound number corresponds to the compound numbers used in Tables 1-4 and the experimental examples described above.

[1] = system: Enterococcus faecalis, ATCC 33186; assay: Minimal inhibitory concentration assay (microbroth dilution); type: cell-based; conditions: read-out: Minimal Inhibitory Concentrations E. faecalis ATCC 33186
In short: (§1)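 CLSI broth microdilution: two-fold compound dilutions from 200 μM final, ~10^5 cfu/mL inoculum, aerobic overnight incubation at 37 °C. MIC read visually as lowest concentration preventing growth; S. aureus USA 300 compared with its ClpP-inactivated counterpart to check ClpP dependence.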

[2] = system: Staphylococcus aureus, USA 300 wherein ClpP is inactivated; assay: Minimal inhibitory concentration assay; type: cell-based
In short: as §1

[3] = system: Staphylococcus aureus, USA 300; assay: Minimal inhibitory concentration assay; type: cell-based; conditions: USA300, read-out: Minimal Inhibitory Concentrations S. aureus USA 300
In short: as §1

[4] = values without ** or † mark, assay variant not stated, read-out: ClpP Activation EC50

SMILES	EC50 (Sa-ClpP; [4])	MIC ([1]; E. faecalis ATCC 33186)	Minimal Inhibitory Concentrations S. aureus USA 300 ΔClpP [2]	MIC [3]	EC50 (Sa-ClpP)	MIC ([1]; Enterococcus faecalis, ATCC33186)
C[C@@H]1C[C@H]2C(=O)OC[C@H](NC(=O)[C@H](Cc3ccccc3)NC(=O)Nc3ccc4c(c3)OCO4)C(=O)N3CCC[C@H]3C(=O)N3CCCC[C@H]3C(=O)N[C@@H](C)C(=O)N2C1 [Compound 194, (S)-2-(3-(benzo[d][1,3]dioxol-5-yl)ureido)-N-((2R,6S,8aS,14aS,20S,23aS)-2,6-dimethyl-5,8,14,19,23-pentaoxooctadecahydro-1H,5H,14H,19H-pyrido[2,1-i]dipyrrolo[2,1-c:2′,1′-l][1]oxa[4,7,10,13]tetraazacyclohexadecin-20-yl)-3-phenylpropanamide]	1200 ± 600 nM					
C[C@@H]1C[C@H]2C(=O)OC[C@H](NC(=O)[C@H](Cc3ccccc3)NC(=O)Nc3ccc(OC(F)(F)F)cc3)C(=O)N3CCC[C@H]3C(=O)N3CCCC[C@H]3C(=O)N[C@@H](C)C(=O)N2C1 [Compound 205]		0.02 µM (≈ 0.0166 µg/mL)				
Cc1ccc(NC(=O)N[C@@H](Cc2cc(F)cc(F)c2)C(=O)N[C@@H]2C(=O)N3CCC[C@H]3C(=O)N(C)[C@@H]([C@H](C)O)C(=O)N[C@@H](C)C(=O)N3C[C@H](C)C[C@H]3C(=O)O[C@H]2C)cc1 [Compound 208, (S)-3-(3,5-difluorophenyl)-N-((2R,6S,9S,11aS,17S,18S,20aS)-9-((S)-1-hydroxyethyl)-2,6,10,18-tetramethyl-5,8,11,16,20-pentaoxohexadecahydro-1H,5H,16H-dipyrrolo[2,1-c:2′,1′-l][1]oxa[4,7,10,13]tetraazacyclohexadecin-17-yl)-2-(3-(p-tolyl)ureido)propanamide] ({NH(4-Me-phenyl)-CO}-[Phe(3,5-F2)][aThr]P[NMeaThr]A[Pro(4R-Me)]; ester 2-C)	480 ± 30 nM		200 µM	0.1 µM (≈ 0.0812 µg/mL)		
Cc1ccc(NC(=O)N[C@@H](Cc2cc(F)cc(F)c2)C(=O)N[C@@H]2C(=O)N3CCC[C@H]3C(=O)N3CCCC[C@H]3C(=O)N[C@@H](C)C(=O)N3C[C@H](C)C[C@H]3C(=O)O[C@H]2C)cc1 [Compound 209, (S)-3-(3,5-difluorophenyl)-2-(3-(p-tolyl)ureido)-N-((2R,6S,8aS,14aS,20S,21S,23aS)-2,6,21-trimethyl-5,8,14,19,23-pentaoxooctadecahydro-1H,5H,14H,19H-pyrido[2,1-i]dipyrrolo[2,1-c:2′,1′-l][1]oxa[4,7,10,13]tetraazacyclohexadecin-20-yl)propanamide] ({NH(4-Me-phenyl)-CO}-[Phe(3,5-F2)][aThr]P[Pip]A[Pro(4R-Me)]; ester 2-C)	360 ± 30 nM		100 µM	0.05 µM (≈ 0.0404 µg/mL)		
Cc1ccc(NC(=O)N[C@@H](Cc2cc(F)cc(F)c2)C(=O)N[C@@H]2C(=O)N3CCC[C@H]3C(=O)N3CCOC[C@H]3C(=O)N[C@@H](C)C(=O)N3C[C@H](C)C[C@H]3C(=O)O[C@H]2C)cc1 [Compound 210, (S)-3-(3,5-difluorophenyl)-2-(3-(p-tolyl)ureido)-N-((6aS,12S,13S,15aS,17R,21S,23aS)-13,17,21-trimethyl-6,11,15,20,23-pentaoxooctadecahydro-6H,11H,15H-[1,4]oxazino[3,4-i]dipyrrolo[2,1-c:2′,1′-l][1]oxa[4,7,10,13]tetraazacyclohexadecin-12-yl)propanamide] ({NH(4-Me-phenyl)-CO}-[Phe(3,5-F2)][aThr]P[Morpholine(3S-CO)]A[Pro(4R-Me)]; ester 2-C)	400 ± 10 nM		>200 µM	0.006 µM (≈ 0.00486 µg/mL)		
CCc1ccc(NC(=O)N[C@@H](Cc2cc(F)cc(F)c2)C(=O)N[C@@H]2C(=O)N3C[C@H](O)C[C@H]3C(=O)N3CCCC[C@H]3C(=O)N[C@@H](C)C(=O)N3C[C@H](C)C[C@H]3C(=O)O[C@H]2C)cc1 [Compound 211, (S)-3-(3,5-difluorophenyl)-2-(3-(4-ethylphenyl)ureido)-N-((2R,6S,8aS,14aS,16R,20S,21S,23aS)-16-hydroxy-2,6,21-trimethyl-5,8,14,19,23-pentaoxooctadecahydro-1H,5H,14H,19H-pyrido[2,1-i]dipyrrolo[2,1-c:2′,1′-l][1]oxa[4,7,10,13]tetraazacyclohexadecin-20-yl)propanamide] ({NH(4-Et-phenyl)-CO}-[Phe(3,5-F2)][aThr][Hyp][Pip]A[Pro(4R-Me)]; ester 2-C)			>200 µM	0.04 µM (≈ 0.0335 µg/mL)	500 ± 10 nM	
Cc1ccc(NC(=O)N[C@@H](Cc2cc(F)cc(F)c2)C(=O)N[C@@H]2C(=O)N3C[C@H](O)C[C@H]3C(=O)N3CCCC[C@H]3C(=O)N[C@@H](C)C(=O)N3C[C@H](C)C[C@H]3C(=O)O[C@H]2C)cc1C [Compound 212, (S)-3-(3,5-difluorophenyl)-2-(3-(3,4-dimethylphenyl)ureido)-N-((2R,6S,8aS,14aS,16R,20S,21S,23aS)-16-hydroxy-2,6,21-trimethyl-5,8,14,19,23-pentaoxooctadecahydro-1H,5H,14H,19H-pyrido[2,1-i]dipyrrolo[2,1-c:2′,1′-l][1]oxa[4,7,10,13]tetraazacyclohexadecin-20-yl)propanamide] ({NH(3,4-Me2-phenyl)-CO}-[Phe(3,5-F2)][aThr][Hyp][Pip]A[Pro(4R-Me)]; ester 2-C)	500 ± 30 nM		>200 µM	0.1 µM (≈ 0.0838 µg/mL)		
C[C@@H]1NC(=O)[C@H](C)N(C)C(=O)[C@@H]2CCCN2C(=O)[C@@H](NC(=O)[C@H](Cc2ccccc2)NC(=O)Nc2ccc(OC(F)(F)F)cc2)COC(=O)C2CCCN2C1=O (stereo partly drawn) [Compound 213, (2S)-3-phenyl-2-(3-(4-(trifluoromethoxy)phenyl)ureido)-N-((6S,9S,11aS,17S)-6,9,10-trimethyl-5,8,11,16,20-pentaoxohexadecahydro-1H,5H,16H-dipyrrolo[2,1-c:2′,1′-l][1]oxa[4,7,10,13]tetraazacyclohexadecin-17-yl)propanamide] ({NH(4-OCF3-phenyl)-CO}-FSP[NMeA]A[ξP]; ester 2-C)						0.39 µM (≈ 0.307 µg/mL)
Cc1ccc(NC(=O)N[C@@H](Cc2cc(F)cc(F)c2)C(=O)N[C@@H]2C(=O)N3C[C@H](O)C[C@H]3C(=O)N3CCOC[C@H]3C(=O)N[C@@H](C)C(=O)N3C[C@H](C)C[C@H]3C(=O)O[C@H]2C)cc1C [Compound 215, (S)-3-(3,5-difluorophenyl)-2-(3-(3,4-dimethylphenyl)ureido)-N-((6aS,8R,12S,13S,15aS,17R,21S,23aS)-8-hydroxy-13,17,21-trimethyl-6,11,15,20,23-pentaoxooctadecahydro-6H,11H,15H-[1,4]oxazino[3,4-i]dipyrrolo[2,1-c:2′,1′-l][1]oxa[4,7,10,13]tetraazacyclohexadecin-12-yl)propanamide] ({NH(3,4-Me2-phenyl)-CO}-[Phe(3,5-F2)][aThr][Hyp][Morpholine(3S-CO)]A[Pro(4R-Me)]; ester 2-C)	500 ± 10 nM			0.8 µM (≈ 0.672 µg/mL)		
